This note sets out measurements from patent publication US6551591B1, “Antibiotics from microbispora” (priority 2001, dated 2003).

In test [1] the test system is MRSA (methicillin resistance Staphylococcus aureus) strains. In words: MIC50/MIC90 against a collection of genotypically characterized S. aureus isolates. Format: cell-based. Here is the method: (§1) The antibacterial activity of MF-BA-1768α1 and MF-BA-1768β1 were determined against a spectrum of bacterial strains using a broth microdilution assay performed as recommended by the NCCLS (NCCLS Document M7-A4, Vol 17 No.2). With the exception of Streptococci spp. and H. influenzae, the assay was performed in Cation Adjusted Mueller-Hinton Broth (CAMHB). For the Streptococci spp., CAMHB+2-5% Laked Horse Blood (REMEL) was used. For H. influenzae, Haemophilus Test Medium (REMEL) containing 2% Fildes Enrichment was used. The final bacterial inoculum was 5×10^5 CFU/ml in a final assay volume of 100 μl. Microtiter plates containing the test samples and the respective bacterial inoculum were incubated for 24 hours at 35° C. with the exception of E. coli plates, which were incubated for 20 hours at 35° C. Upon completion of incubation, the plates were read using a microtiter plate reader (Molecular Devices) at 650 nm as well as by visual observation using a microtiter plate reading mirror. […]
(§2) The antibacterial activity of MF-BA-1768β1 was further evaluated side-by-side with 9 reference antibiotics against a collection of genotypically well-characterized isolates of Staphylococcus aureus. These included 64 MRSA (methicillin resistance Staphylococcus aureus) strains and 19 MSSA (methicillin sensitive Staphylococcus aureus) strains representing 57 staphylococcal protein A genotypes and 22 coagulase A genotypes. The most common protein A genotypes found in the USA were represented by more than one isolate.

For test [2], the system named is MSSA (methicillin sensitive Staphylococcus aureus) strains. The description is as above. It is filed as cell-based. As for the experimental part: as §1, §2
Where [3] appears, read: Staphylococcus aureus, MRSA (64 strains), read-out: MIC50.
Where [4] appears, read: Staphylococcus aureus, MRSA (64 strains), read-out: MIC90.
Where [5] appears, read: Staphylococcus aureus, MSSA (19 strains), read-out: MIC50.
The mark [6] stands for this setting: Staphylococcus aureus, MSSA (19 strains), read-out: MIC90.

Values after ≈ are worked out from the molar mass of the structure shown. Where two headings read alike, the source gives them in different places.

In the case of `CC1COc2c(N3CCN(C)CC3)c(F)cc3c(=O)c(C(=O)O)cn1c23` (stereo not drawn) [Ofloxacin], the MIC50 in test [1] (setting [3]) and in test [2] (setting [5]) was 0.5 µg/mL (≈ 1.38 µM) throughout. Besides, the MIC90 in test [1] (setting [4]) and in test [2] (setting [6]) was 32 µg/mL (≈ 88.6 µM) throughout.

In test [1] (MRSA (64 strains)), Gentamicin yielded an MIC50 of 1 µg/mL and an MIC90 of more than 32 µg/mL. In test [2] (MSSA (19 strains)), this compound returned an MIC50 of 0.5 µg/mL and an MIC90 of 32 µg/mL.

As to `CN[C@H](CC(C)C)C(=O)N[C@H]1C(=O)N[C@@H](CC(N)=O)C(=O)N[C@H]2C(=O)N[C@H]3C(=O)N[C@H](C(=O)N[C@H](C(=O)O)c4cc(O)cc(O)c4-c4cc3ccc4O)[C@H](O)c3ccc(c(Cl)c3)Oc3cc2cc(c3O[C@@H]2O[C@H](CO)[C@@H](O)[C@H](O)[C@H]2O[C@H]2C[C@](C)(N)[C@H](O)[C@H](C)O2)Oc2ccc(cc2Cl)[C@H]1O` [Vancomycin], the MIC50 in test [1] (Staphylococcus aureus, MRSA) was determined as 0.5 µg/mL (≈ 0.345 µM); in test [2] (Staphylococcus aureus, MSSA), 0.5 µg/mL (≈ 0.345 µM). For the same compound, the MIC90 was found to be 1 µg/mL (≈ 0.69 µM) in test [1] (Staphylococcus aureus, MRSA) and 1 µg/mL (≈ 0.69 µM) in test [2] (Staphylococcus aureus, MSSA).

Regarding `CO/N=C(\C(=O)N[C@@H]1C(=O)N2C(C(=O)O)=C(COC(C)=O)CS[C@H]12)c1csc(N)n1` [Cefotaxime], the MIC50 in test [1] (setting [3]) came to 512 µg/mL (≈ 1120 µM); in test [2] (setting [5]), 2 µg/mL (≈ 4.39 µM). For the same compound, the MIC90 in test [1] (setting [4]) was more than 512 µg/mL; in test [2] (setting [6]), 256 µg/mL (≈ 562 µM).

For `CN(C)[C@@H]1C(O)=C(C(N)=O)C(=O)[C@@]2(O)C(O)=C3C(=O)c4c(O)cccc4[C@@](C)(O)[C@H]3C[C@@H]12` [Tetracycline], the MIC50 in test [1] (setting [3]) and in test [2] (setting [5]) was 0.25 µg/mL (≈ 0.563 µM) each time. Further, the MIC90 is more than 32 µg/mL in test [1] (setting [4]) and 32 µg/mL (≈ 72 µM) in test [2] (setting [6]).

With `C[C@@H](O)[C@H]1C(=O)N2C(C(=O)O)=C(SCCN=CN)C[C@H]12` [Imipenem], the MIC50 in test [1] (setting [3]) is 8 µg/mL (≈ 26.7 µM); in test [2] (setting [5]) it was not above 0.5 µg/mL. In addition, the MIC90 in test [1] (setting [4]) was 128 µg/mL (≈ 428 µM); in test [2] (setting [6]), 4 µg/mL (≈ 13.4 µM).

For the compound `Cc1onc(-c2ccccc2)c1C(=O)N[C@@H]1C(=O)N2[C@@H]1SC(C)(C)[C@@H]2C(=O)O` [Oxacillin], the MIC50 was 128 µg/mL (≈ 319 µM) in test [1] (setting [3]) and not above 1 µg/mL in test [2] (setting [5]). Further, the MIC90 in test [1] (setting [4]) was found to be 512 µg/mL (≈ 1280 µM); in test [2] (setting [6]) it was 64 µg/mL (≈ 159 µM).

On to `CO[C@H]1/C=C/O[C@@]2(C)Oc3c(C)c(O)c4c(O)c(c(/C=N/N5CCN(C)CC5)c(O)c4c3C2=O)NC(=O)/C(C)=C\C=C\[C@H](C)[C@H](O)[C@@H](C)[C@@H](O)[C@@H](C)[C@H](OC(C)=O)[C@@H]1C` [Rifampicin], for which the MIC50 in test [1] (setting [3]) and in test [2] (setting [5]) was not above 0.0625 µg/mL throughout. In addition, the MIC90 in test [1] (setting [4]) was more than 32 µg/mL; in test [2] (setting [6]) it was not above 0.0625 µg/mL.

Take `CCOc1ccc2ccccc2c1C(=O)N[C@@H]1C(=O)N2[C@@H]1SC(C)(C)[C@@H]2C(=O)O` [Nafcillin]: the MIC50 in test [1] (setting [3]) is 64 µg/mL (≈ 154 µM); in test [2] (setting [5]), not above 1 µg/mL. The MIC90 stood at 256 µg/mL (≈ 618 µM) in test [1] (setting [4]) and 16 µg/mL (≈ 38.6 µM) in test [2] (setting [6]).
